Tested on: Chinese hamster ovary (CHO) cell cultures
Format: cell-based
Method: A suspension of particles of the sequestrant in deionized water was prepared. The suspension was serially diluted into serumless culture medium. The most concentrated suspension tested was 1000 micrograms sequestrant per milliliter suspension (μg/ml). Exponentially growing Chinese hamster ovary (CHO) cell cultures were treated with the sequestrant dilutions for three hours. The cultures were gently rocked on a rocker platform during treatment in an attempt to maintain a uniform suspension over the cells for the entire treatment period. Negative controls i.e., CHO cell cultures treated with serumless culture medium, and solvent controls, i.e., CHO cell cultures treated with 1% deionized water in serumless culture medium, were included. Treatment was terminated by washing the cultures twice with Dulbecco's phosphate buffered saline and cells were allowed to recover in McCoy's 5A medium containing 10% fetal bovine serum for 0, 5 or 21 hours, i.e., 3, 8 or 24 hours from the beginning of treatment. […] The harvested cells were counted by Coulter counter to determine relative reductions in cell numbers. At selected doses, Trypan blue exclusion counts were conducted using a hemacytometer to determine cell viability to control for the possibility that some dead cells may have been counted with the Coulter counter. […]

## poly(dimethylaminopropylmethacrylamide) [Comparative Example C1]
  ED50 (dosage effective to kill 50% of the cells): 10.0 µg/mL
